Experimental data as given in patent publication US20030228357A1, “Dry granulated formulations of azithromycin” (Pfizer Inc., priority 2002, published 2003).

Assays:
Assay type in all cases: physicochemical
[1] = Slug (compact) hardness, Schleuniger hardness tablet tester
From the text: A compaction simulator was used to compress the blends. The compaction simulator was designed as a single station tablet press in which the compression dwell time can be adjusted to simulate different types of tablet presses. All the formulations were slugged on the compaction simulator configured as the Kilian RX-67 press with a dwell time of 0.3145 seconds using […] round flat face tooling. The slugs were then comminuted using a Fitz mill with a 0.125″ screen with knives forward and run at slow speed. […] The slugs were tested for hardness (kP scale), using a Schleuniger hardness tablet tester (Dr. Schleuniger Pharmatron AG, Solothurn, Switzerland).

[2] = Tablet disintegration time, Automatic Disintegration Tester; details: Table 2A; Long blend; Oval tooling; distilled water at 37° C.
Description: The disintegration time was determined in distilled water at 37° C. using an Automatic Disintegration Tester (Model ZT72, Erweka USA Inc, Milford, Conn.) for the long blend tablets. Even with extensive blending times with magnesium stearate, reasonably short disintegration times of 15 and 20 seconds were obtained.

[3] = Tablet friability, Vanderkamp Friabulator (100 rotations/4 minutes); details: Table 4D; high drug loading; diluent DCP, dihyd.; modified capsule shape
[4] = Tablet hardness, Schleuniger hardness tablet tester
[5] = Density and Carr's Compressibility Index (flowability) of dry blends and dry granulations
From the text: Carr's Compressibility Index was used to evaluate the flowability of the four dry granulations. Carr's Compressibility Index is a simple test to evaluate flowability by comparing both the initial and final (tapped) bulk volumes and the rate of packing down. A useful empirical guide to flow is given by Carr's compressibility index: Compressibility Index(%)=[(tapped density−initial density)/tapped density]×100 […] The procedure is described in Int. J. Pharm. Tech. & Prod. Mfr., 6(3) 10-16, 1985.

[6] = Tablet hardness, Schleuniger hardness tablet tester; remark: listed apart in the source
Description: All four formulations were compressed on the compaction simulator using either 0.344″×0.688″ oval tooling, or ½″ standard round concave (SRC) tooling. The tablets were tested for hardness (kP scale), using a Schleuniger hardness tablet tester (Dr. Schleuniger Pharmatron AG, Solothurn, Switzerland), and for friability (100 rotations/4 minutes) using a Vanderkamp Friabulator Tablet Tester (Vankel, Cary, N.C., US).

[7] = Indices of tableting performance (Hiestand) of bulk azithromycin; details: forms N, M, G, A milled, F and J unmilled
Description: Indices of tableting performance, for several azithromycin forms, were assessed to identify any mechanical deficiencies or attributes that may affect tablet formulation for these azithromycin forms. This assessment was performed in accordance with the procedures described in “Indices of Tableting, Performance” […] and D. P. Smith, Powder Technology 38 [1984] pp. 145-159. Specifically, the Brittle Fracture Index, BFI, was calculated from the ratio of a material's regular tensile strength to its compromised tensile strength. Strain Index, SI, was determined from the dynamic indentation hardness test. Worst Case Bonding Index was determined by assessing the extent of particle bonding remaining after decompression assuming a very short compression dwell time and a plastic mechanism of particle separation during decompression. Tableting Indices were determined for bulk azithromycin lots of six different crystalline forms, specifically forms N, M, G, A, F and J. Forms N, M and G were milled with a Fitzmill (Model JT, The Fitzpatrick Co., Elmhurst, Ill.) using a 0.027'' screen and knives at high speed in an attempt to match the smaller particle size of milled Form A. Unmilled forms F and J were evaluated “as is” due to their relatively small particle sizes.

[8] = 35.2 wt % azithromycin, dicalcium phosphate anhydrous diluent, Long blend method
[9] = 35.2 wt % azithromycin, dicalcium phosphate anhydrous diluent, Short blend method
[10] = Table 3A, low drug loading: 35.2 wt % azithromycin, 54.8 wt % dicalcium phosphate anhydrous, long blend
[11] = Table 3B, high drug loading: 58.2 wt % azithromycin, 31.8 wt % dicalcium phosphate anhydrous, long blend
[12] = Table 4A, low drug loading (35.2 wt % azithromycin), diluent DCP, anhyd.
[13] = Table 4A, low drug loading (35.2 wt % azithromycin), diluent DCP, dihyd.
[14] = Table 4B, high drug loading (58.2 wt % azithromycin), diluent DCP, anhyd.
[15] = Table 4B, high drug loading (58.2 wt % azithromycin), diluent DCP, dihyd.
[16] = 35.2 wt % azithromycin, dicalcium phosphate anhydrous diluent, Long blend method, slugged
[17] = 35.2 wt % azithromycin, dicalcium phosphate anhydrous diluent, Short blend method, slugged
[18] = Table 7, milled Form A lot, 58.2 wt % azithromycin, DCP anhydrous
[19] = Table 7, unmilled Form A lot, 58.2 wt % azithromycin, DCP anhydrous
[20] = Table 7A, 55.76 wt % azithromycin, lactose anhydrous, corn starch, roller compaction 850 psi, dihydrate
[21] = Table 7 Lot 1, milled, roller compaction, Roll Pressure Setting 850 psi
[22] = Table 7 Lot 2, milled, roller compaction, Roll Pressure Setting 300 psi
[23] = Table 7 Lot 3, unmilled, roller compaction, Roll Pressure Setting 500 psi
[24] = Table 7 Lot 4, unmilled, roller compaction, Roll Pressure Setting 300 psi

CC[C@H]1OC(=O)[C@H](C)[C@@H](O[C@H]2C[C@@](C)(OC)[C@@H](O)[C@H](C)O2)[C@H](C)[C@@H](O[C@@H]2O[C@H](C)C[C@H](N(C)C)[C@H]2O)[C@](C)(O)C[C@@H](C)CN(C)[C@H](C)[C@@H](O)[C@]1(C)O [Form A, azithromycin dihydrate, reference compound]
Avg Slug Hardness [1, 8]: 13.4 kP | Avg Slug Hardness [1, 9]: 13.7 kP | Avg Slug Hardness [1, 10]: 13 kP | Avg Slug Hardness [1, 11]: 12 kP | Avg Slug Hardness [1, 12]: 13 kP | Avg Slug Hardness [1, 13]: 11 kP | Avg Slug Hardness [1, 14]: 12 kP | Avg Slug Hardness [1, 15]: 10 kP | Mean disintegration Time [2]: 15 s | Friability [3]: 0.49% | Avg Tablet Hardness ([4]; Table 2A, 35.2 wt % azithromycin, DCP anhydrous, Long blend, ½″ SRC tooling, 9.6 kN): 5.8 kP | Avg Tab Hardness ([4]; Table 2B Run 5, Short blend, Oval tooling, compression force 18.7 kN): 8.2 kP | Avg Hardness ([4]; Table 3C, low drug loading (35.2 wt % azithromycin), DCP anhydrous, oval tablets, target weight 750 mg): 9.0 kP | Avg Hardness ([4]; Table 3D, high drug loading (58.2 wt % azithromycin), DCP anhydrous, modified capsule shape tablets, target weight 450 mg): 6.2 kP | Avg Tablet Hardness ([4]; Table 4C, low drug loading, diluent DCP, anhyd., SRC (½″) tooling): 5.8 kP | Avg Tablet Hardness ([4]; Table 4C, low drug loading, diluent DCP, dihyd., Oval tooling): 6.8 kP | Avg Tablet Hardness ([4]; Table 4D, high drug loading, diluent DCP, anhyd., modified capsule shape): 6.2 kP | Avg Tablet Hardness ([4]; Table 4D, high drug loading, diluent DCP, dihyd., modified capsule shape): 5.2 kP | Dry Blend Carr's Index [5, 8]: 44% | Dry Blend density As Is [5, 8]: 0.59 g/cc | Dry Blend density Tapped [5, 8]: 1.05 g/cc | Granulation Carr's Index [5, 16]: 26% | Granulation Density As Is [5, 16]: 0.88 g/cc | Granulation Density Tapped [5, 16]: 1.19 g/cc | Dry Blend Carr's Index [5, 9]: 43% | Dry Blend density As Is [5, 9]: 0.59 g/cc | Dry Blend density Tapped [5, 9]: 1.04 g/cc | Granulation Carr's Index [5, 17]: 32% | Granulation Density As Is [5, 17]: 0.78 g/cc | Granulation Density Tapped [5, 17]: 1.14 g/cc | Granulation Carr's Index [5, 10]: 26% | Granulation Density As Is [5, 10]: 0.89 g/cc | Granulation Density Tapped [5, 10]: 1.19 g/cc | Granulation Carr's Index [5, 11]: 30% | Granulation Density As Is [5, 11]: 0.67 g/cc | Granulation Density Tapped [5, 11]: 0.96 g/cc | Dry Granulation Carr's Index [5, 12]: 26% | Dry Granulation Density As Is [5, 12]: 0.89 g/cc | Dry Granulation Density Tapped [5, 12]: 1.19 g/cc | Dry Granulation Carr's Index [5, 13]: 18% | Dry Granulation Density As Is [5, 13]: 0.84 g/cc | Dry Granulation Density Tapped [5, 13]: 1.04 g/cc | Dry Granulation Carr's Index [5, 14]: 30% | Dry Granulation Density As Is [5, 14]: 0.67 g/cc | Dry Granulation Density Tapped [5, 14]: 0.96 g/cc | Dry Granulation Carr's Index [5, 15]: 25% | Dry Granulation Density As Is [5, 15]: 0.69 g/cc | Dry Granulation Density Tapped [5, 15]: 0.92 g/cc | Dry Blend Carr's Index [5, 18]: 47% | Dry Blend density As Is [5, 18]: 0.49 g/cc | Dry Blend density Tapped [5, 18]: 0.92 g/cc | Dry Blend Carr's Index [5, 19]: 44% | Dry Blend density As Is [5, 19]: 0.57 g/cc | Dry Blend density Tapped [5, 19]: 1.01 g/cc | Dry Granulation Density Tapped ([5]; Table 7A, 55.76 wt % azithromycin, lactose anhydrous, corn starch, roller compaction 850 psi): 0.86 g/cc | Dry Granulation Carr's Index [5, 20]: 24% | Dry Granulation Density As Is [5, 20]: 0.66 g/cc | Dry Granulation Carr's Index [5, 21]: 39% | Dry Granulation Density As Is [5, 21]: 0.55 g/cc | Dry Granulation Density Tapped [5, 21]: 0.91 g/cc | Dry Granulation Carr's Index [5, 22]: 33% | Dry Granulation Density As Is [5, 22]: 0.60 g/cc | Dry Granulation Density Tapped [5, 22]: 0.90 g/cc | Dry Granulation Carr's Index [5, 23]: 30% | Dry Granulation Density As Is [5, 23]: 0.64 g/cc | Dry Granulation Density Tapped [5, 23]: 0.92 g/cc | Dry Granulation Carr's Index [5, 24]: 26% | Dry Granulation Density As Is [5, 24]: 0.66 g/cc | Dry Granulation Density Tapped [5, 24]: 0.92 g/cc | Avg Tablet Hardness ([6]; Table 2A, 35.2 wt % azithromycin, DCP anhydrous, Long blend, Oval tooling, compression force 13.5 kN (A), 19 kN (F)): 9.0 kP | Avg Tab Hardness ([6]; Table 2B Run 4, Short blend, Oval tooling, compression force 12 kN): 6.8 kP | Avg Tablet Hardness ([6]; Table 4C, low drug loading, diluent DCP, anhyd., Oval tooling): 9.0 kP | Avg Tablet Hardness ([6]; Table 4C, low drug loading, diluent DCP, dihyd., SRC (½″) tooling): 6.2 kP | Brittle Fracture Index (BFI) [7]: 0.10 | Strain Index (SI) ([7]; dihydrate): 0.0044 | Tensile Strength ([7]; dihydrate): 0.99 Mpa | Worst Case Bonding Index (BIw) × 10^2 ([7]; dihydrate): 0.9
